Drawing on ChEMBL document CHEMBL4364253, “Application of Dually Activated Michael Acceptor to the Rational Design of Reversible Covalent Inhibitor for Enterovirus 71 3C Protease” (J Med Chem, 2019), this text covers EC50, Activity and Ki for 18 molecules.

The test system of one data set is Enterovirus A71. The data set can be described thus: Antiviral activity against pseudotyped Enterovirus A71 infected in human muscular rhabdomyosarcoma cells treated prior to viral infection and measured after 24 hrs by luminescence method. It is filed as functional, organism-based. The note with it: Enterovirus A.
The subject of a further data set is RD. The data set can be described thus: Cytotoxicity against human RD cells at 100 uM after 24 hrs by WST-1 assay relative to control. It is filed as cell-based.
Data set [1] is described as follows: Reversible inhibition of Enterovirus 71 3C protease assessed as overall inhibition constant using NMA-IEALFQGPPK(DNP)FR as substrate pre-incubated for 30 mins followed by substrate addition and measured over 30 mins by fluorescence method. On the set-up: species or system Enterovirus A71.

The structures appear in SMILES notation. pEC50, pKi: −log10 of the molar value.

In turn, `COC(=O)C(Br)=C[C@H](C[C@@H]1CCCNC1=O)NC(=O)[C@H](Cc1ccc(F)cc1)NC(=O)c1cc(C)on1` gave a pEC50 in the data set on Enterovirus A71 of 6.54. The Activity in the data set on RD is given as 100%. Also, the pKi in data set [1] is 6.94.
As to `Cc1cc(C(=O)N[C@@H](Cc2ccc(F)cc2)C(=O)N[C@H](/C=C(/C#N)c2ccsc2)C[C@@H]2CCCNC2=O)no1`, in the data set on Enterovirus A71, the pEC50 was 4.71.
Same read-out and setting: the value for `Cc1cc(C(=O)N[C@@H](Cc2ccc(F)cc2)C(=O)N[C@H](/C=C(\C#N)c2ccccc2)C[C@@H]2CCCNC2=O)no1` was under 4.00.
Turning to `CCNC(=O)/C(C#N)=C/[C@H](C[C@@H]1CCCNC1=O)NC(=O)[C@H](Cc1ccc(F)cc1)NC(=O)c1cc(C)on1`, the pEC50 in the data set with Enterovirus A71 was 6.29. Moreover, the pKi in data set [1] is 6.48.
For the molecule `Cc1cc(C(=O)N[C@@H](Cc2ccc(F)cc2)C(=O)N[C@H](CC(C#N)c2ccccn2)C[C@@H]2CCCNC2=O)no1` (mixture of isomers), the pEC50 in the data set on Enterovirus A71 is under 4.00. In addition, the Activity in the data set on RD came out at 50%.
In turn, `Cc1cc(C(=O)N[C@@H](Cc2ccc(F)cc2)C(=O)N[C@H](/C=C(\C#N)c2ccc3ccccc3c2)C[C@@H]2CCCNC2=O)no1` gave a pEC50 in the data set on Enterovirus A71 of 4.89.
For the molecule `Cc1cc(C(=O)N[C@@H](Cc2ccc(F)cc2)C(=O)N[C@H](/C=C(/C#N)c2ccccn2)C[C@@H]2CCCNC2=O)no1`, the pEC50 in the data set on Enterovirus A71 is 5.57. The same molecule had an Activity with RD of 90%. Further, the pKi in data set [1] is 6.16.
For `CC(C#N)=C[C@H](C[C@@H]1CCCNC1=O)NC(=O)[C@H](Cc1ccc(F)cc1)NC(=O)c1cc(C)on1`, the pEC50 in the data set on Enterovirus A71 was under 4.00.
`Cc1cc(C(=O)N[C@@H](Cc2ccc(F)cc2)C(=O)N[C@H](C=C(Cl)C#N)C[C@@H]2CCCNC2=O)no1`: the negative logarithm of the EC50 (pEC50) in the data set on Enterovirus A71 was under 4.00. The Activity in the data set on RD stood at 100%.
In the case of `Cc1cc(C(=O)N[C@@H](Cc2ccc(F)cc2)C(=O)N[C@H](/C=C(\C#N)C(=O)OC(C)C)C[C@@H]2CCCNC2=O)no1`, the pEC50 in the data set on Enterovirus A71 was 7.24. Besides, the pKi in data set [1] is 7.79.
For the molecule `Cc1cc(C(=O)N[C@@H](Cc2ccc(F)cc2)C(=O)N[C@H](C=C(Br)C#N)C[C@@H]2CCCNC2=O)no1`, in the data set with Enterovirus A71, the pEC50 was under 4.00. The Activity in the data set on RD was 100%.
The molecule `CCOC(=O)/C(C#N)=C/[C@H](C[C@@H]1CCCNC1=O)NC(=O)[C@H](Cc1ccc(F)cc1)NC(=O)c1cc(C)on1` showed a pEC50 in the data set on Enterovirus A71 of 7.14. Besides, the pKi in data set [1] was 7.88.
In the same order, the values of `CCCOC(=O)/C(C#N)=C/[C@H](C[C@@H]1CCCNC1=O)NC(=O)[C@H](Cc1ccc(F)cc1)NC(=O)c1cc(C)on1` are 7.11 and 7.99.
In turn, `CCOC(=O)C(Br)=C[C@H](C[C@@H]1CCCNC1=O)NC(=O)[C@H](Cc1ccc(F)cc1)NC(=O)c1cc(C)on1` showed a pEC50 in the data set with Enterovirus A71 of 6.46. The Activity with RD is on record as 100%. Moreover, the pKi in data set [1] is 6.93.
For `CCOC(=O)C(Cl)=C[C@H](C[C@@H]1CCCNC1=O)NC(=O)[C@H](Cc1ccc(F)cc1)NC(=O)c1cc(C)on1` the same measures were 6.42, 100% and 6.79.
For the molecule `CCCN(C(=O)OC(C)(C)C)C(=O)/C(C#N)=C/[C@H](C[C@@H]1CCCNC1=O)NC(=O)[C@H](Cc1ccc(F)cc1)NC(=O)c1cc(C)on1`, the pEC50 in the data set with Enterovirus A71 was 7.05. Moreover, in data set [1], the pKi was 7.74.
For `CCCNC(=O)/C(C#N)=C/[C@H](C[C@@H]1CCCNC1=O)NC(=O)[C@H](Cc1ccc(F)cc1)NC(=O)c1cc(C)on1` the same measures were 6.00 and 6.12.
Molecule `COC(=O)C(C#N)C[C@H](C[C@@H]1CCCNC1=O)NC(=O)[C@H](Cc1ccc(F)cc1)NC(=O)c1cc(C)on1` (mixture of isomers) had a pEC50 in the data set on Enterovirus A71 of under 4.00.
